The assay has as its target STING (Homo sapiens, UniProt Q86WV6). The assay can be described thus: Western Blot analysis for STING degradation in HaCat cells. The format is cell-based. Further details: host or cells: HFF-1 human foreskin fibroblasts. The settings on record: 0.22 µM, 0.67 µM, 2 µM and 6 µM. The method, then: To assess STING degradation in H596 cells (ATCC, HTB-178) cells were seeded at a density of 100.000 cells/well in 24-well Nunclon Delta surface treated culture plate in RPMI-1640 growth medium (supplemented with 10% FBS, 1% Pen-strep). Cells were incubated over-night at 37°C 5% CO2 to allow adhesion. Next day growth medium was renewed and a 5x concentration of test compounds (2.5% DMSO) diluted in growth medium were added to the appropriate well. Final DMSO concentration was 0.5%. Cell culture plates were returned to the incubator for additional 24h. Final test compound concentrations were 0.22 µM, 0.67 µM, 2 µM and 6 µM.
For cell lysis, western blotting and data analysis, the methods described above for HFF-1 cells were applied.
Similar protocols were carried out to assess STING degradation in H1650 cells (Figure 1, top panel) and HaCat cells (Figure 1, bottom panel) using Example compounds 14, 16 and 24, except that the seeding density was 150,000 cells/well and 250,000 cells/well for H1650 cells and HaCat cells, respectively.
(In general: In western blotting, separated proteins are transferred to a membrane and probed.)

The record followed here is patent EP4663632A1, “COMPOUNDS USEFUL FOR THE MODULATION OF THE ACTIVITY OF STING” (Sulis Therapeutics ApS, priority 2024, dated 2025).

STING, sequence (Q86WV6 whole entry): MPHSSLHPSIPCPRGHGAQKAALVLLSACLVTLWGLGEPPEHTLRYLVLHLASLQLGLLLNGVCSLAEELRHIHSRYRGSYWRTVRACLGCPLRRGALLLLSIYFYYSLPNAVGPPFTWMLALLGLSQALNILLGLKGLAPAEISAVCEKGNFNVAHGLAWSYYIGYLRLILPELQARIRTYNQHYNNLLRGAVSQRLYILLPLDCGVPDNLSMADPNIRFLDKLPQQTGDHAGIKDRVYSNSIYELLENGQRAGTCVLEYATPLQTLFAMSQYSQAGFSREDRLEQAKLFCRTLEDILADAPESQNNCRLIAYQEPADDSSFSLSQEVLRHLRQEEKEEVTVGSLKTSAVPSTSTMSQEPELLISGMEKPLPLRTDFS

In the case of `CCn1nc(C)cc1C(=O)N=c1n(C)c2cc(C(N)=O)ccc2n1CCC(CCn1c(=NC(=O)c2cc(C)nn2CC)n(C)c2cc(C(N)=O)ccc21)OCC(=O)NCCOCCOCCOCCOCCC(=O)NCCOCCOCCOCCOCCNc1cccc2c1C(=O)N(C1CCC(=O)NC1=O)C2=O` (stereo not shown) [Example 16], the “STING degradation (Western Blot, Figure 1)” value is listed as “induced STING degradation in all cell lines tested at all concentrations tested”.
